Test results reported in patent publication US20110288082A1, “METHODS AND COMPOSITIONS FOR INHIBITION OF THE TRANSITIONAL ENDOPLASMIC RETICULUM ATPASE” (priority 2010, published 2011).
Read-outs that look alike come from different tables or passages of the source.

Legend:
[1] = tested on: p97-dependent Ub^G76V-GFP degradation in HeLa cells; test: Ub^G76V-GFP degradation (turn-over) assay; type: cell-based, human; settings: Homo sapiens, HeLa
Procedure: Ub^G76V-GFP Degradation Assay
Two GFP images with 100 ms exposure time per well were acquired and the average GFP intensity per area of a HeLa cell was determined by using MetaXpress software. Mean GFP intensity of 300-500 cells was calculated using Excel. Normalized GFP intensity was calculated using the following formula: (Test compound−Background)/(Basal GFP intensity—Background). Where: Test compound is defined as Mean GFP intensity of Ub^G76V-GFP-expressing cells treated with the test compound. Background is defined as background GFP intensity of HeLa cells. Basal GFP intensity is defined as mean GFP intensity of Ub^G76V-GFP-expressing cells treated with DMSO. […] The percent of remaining k for each compound is calculated using the following formula: (Test compound/DMSO control)*100. Where: Test_compound is defined as k determined from wells containing test compound, DMSO control is defined as k determined from wells containing DMSO.

p97 = p97 (Homo sapiens, UniProt P55072); test: p97 ATPase assay (Kinase Glo Plus; biomol green for compounds that interfere with luciferase); type: biochemical
Chain of p97 (P55072 2-806 limits assumed): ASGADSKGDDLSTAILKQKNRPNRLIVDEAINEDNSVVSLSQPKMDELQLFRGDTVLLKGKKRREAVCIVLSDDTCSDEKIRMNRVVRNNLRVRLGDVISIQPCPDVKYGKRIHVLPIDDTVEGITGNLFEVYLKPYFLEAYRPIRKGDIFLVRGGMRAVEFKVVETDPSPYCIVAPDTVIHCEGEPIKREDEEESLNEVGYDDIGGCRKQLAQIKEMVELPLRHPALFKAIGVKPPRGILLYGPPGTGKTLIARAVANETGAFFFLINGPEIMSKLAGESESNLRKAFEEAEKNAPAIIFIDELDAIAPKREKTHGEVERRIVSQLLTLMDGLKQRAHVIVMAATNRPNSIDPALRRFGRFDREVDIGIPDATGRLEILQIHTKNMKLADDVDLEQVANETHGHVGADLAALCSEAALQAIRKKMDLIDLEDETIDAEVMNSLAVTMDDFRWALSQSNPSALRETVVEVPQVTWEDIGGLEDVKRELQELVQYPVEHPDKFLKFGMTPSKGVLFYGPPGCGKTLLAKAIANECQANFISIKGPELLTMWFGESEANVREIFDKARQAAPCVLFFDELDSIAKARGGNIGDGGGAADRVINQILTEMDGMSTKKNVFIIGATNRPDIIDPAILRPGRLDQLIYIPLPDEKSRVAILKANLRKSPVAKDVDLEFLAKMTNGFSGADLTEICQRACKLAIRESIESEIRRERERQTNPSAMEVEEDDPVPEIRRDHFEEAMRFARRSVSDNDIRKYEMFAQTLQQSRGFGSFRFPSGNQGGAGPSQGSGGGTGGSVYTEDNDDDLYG
Procedure: Assay Buffer (20 μL of 2.5× concentration, where 1×=50 mM Tris pH 7.4, 20 mM MgCl2, 1 mM EDTA, 0.5 mM TCEP) was dispensed into each well of a 96 well plate. Purified p97 (25 μL of 50 μM) was diluted in 975 μL, of 1× Assay Buffer and 10 μL was dispensed in each well. Test compound (10 μL) or 5% DMSO (10 μL) was then added to each well and the plate was incubated at room temperature for 10 min. The ATPase assay was carried out by adding to each well 10 μL of 500 μM ATP (pH 7.5), incubating at room temperature for 60 min, and then adding 50 μL Kinase Glo Plus reagent (Promega) followed by a final 10 min incubation at room temperature in the dark. Luminescence was read on an Analyst AD (Molecular Devices). Compounds were assayed at a range of concentrations (0, 0.048, 0.24, 1.2, 6, 30 μM) in triplicate. The percent of remaining activity for each reaction was calculated using the following mathematical expression: ((Test Compound-High Control)/(Low Control-High Control))*100. Test_Compound is defined as wells containing test compound, Low_Control is defined as wells containing DMSO, High_Control is defined as wells containing no p97 protein. […] The result was expressed as mean +/− standard error. For assays with Myriad 12 and 19, 100 μL of biomol green reagent (Enzo Life Sciences) was added to each well instead of kinase Glo Plus (Promega) and absorbance at 630 nm was measured. This was done because these compounds interfered with luciferase activity. […]

[2] = read-out: IC50 (μM) Ub^G76V-GFP turn over, Ub^G76V-GFP-expressing HeLa cells, degradation rate constant k from 90 to 180 min, mean +/- standard error
[3] = purified p97, ATP, 60 min room temperature, mean +/- standard error
[4] = read-out: IC50 (μM) Ub^G76V-GFP turn over, p97-dependent Ub^G76V-GFP degradation turn-over assay

| Structure (SMILES) | IC50 [1, 2] [µM] | IC50 (p97; [3]) [µM] | IC50 [1, 4] [µM] | IC50 (p97; p97 ATPase assay) [µM] |
| --- | --- | --- | --- | --- |
| O=[N+]([O-])c1cccc(-c2nc(NCc3ccccc3)c3ccccc3n2)c1 [I-4] | 4 ± 1.6 | – | – | – |
| Clc1ccc(Nc2nc(NCc3ccccc3)c3ccccc3n2)cc1 [II-3] | 5.9 ± 1.2 | 5.4 ± 2 | – | – |
| COc1ccc2c(NCc3ccccc3)nc(NCc3ccccc3)nc2c1 [VI-13] | 42 ± 6 | 5.7 ± 1 | – | – |
| CCN(CC)CCOc1cccc2c(NCc3ccccc3)nc(N3CCOc4ccccc43)nc12 [VII-10] | 5.3 ± 0.6 | 0.4 ± 0.08 | – | – |
| c1ccc(CNc2nc(-c3ccccc3)nc3ccccc23)cc1 [I-2] | 12 ± 3 | 4.2 ± 2.3 | – | – |
| Brc1cccc(CNc2nc(NCc3ccccc3)c3ccccc3n2)c1 [IV-14] | 2.8 ± 0.4 | – | – | – |
| COc1ccc(-c2nc(NCc3ccc(Cl)cc3)c3ccccc3n2)cc1 [I-22] | 9.3 ± 1 | 8 ± 2 | – | – |
| N#CC(C(=O)COC(=O)C1COc2ccccc2O1)=C1Nc2ccccc2N1 (stereo not drawn) [XL] | – | – | 10 ± 1.4 | – |
| N#CC(C(=O)COC(=O)CCC(=O)c1ccc2c(c1)OCCO2)=C1Nc2ccccc2N1 [XXXIX] | – | – | 6.3 ± 0.6 | – |
| Nc1nc(CCl)nc(Nc2ccc(Oc3ccccc3)cc2)n1 [XV] | 3.7 ± 0.6 | 14 ± 5 | – | – |
| COc1cccc2c(NCc3cccs3)nc(N3CCOc4ccccc43)nc12 [XII-5] | 3 ± 0.6 | 1.2 ± 0.2 | – | – |
| Nc1nc(CCl)nc(Nc2ccc(Cl)cc2)n1 [XXXI] | – | – | 8 ± 2 | – |
| Nc1nc(CCl)nc(Nc2ccc(Cl)c(Cl)c2)n1 [XVII] | 5.7 ± 0.8 | 15 ± 4 | – | – |
| c1ccc(CNc2nc(N3CCOCC3)nc3ccccc23)cc1 [XLIV] | – | – | 36 ± 9 | – |
| Cc1c(Cl)cccc1Nc1nc(N)nc(CCl)n1 [XVI] | 5.9 ± 1 | 18 ± 8 | – | – |
| Cc1ccc(Cl)cc1Nc1nc(NCc2ccccc2)c2ccccc2n1 [V-9] | 7 ± 1.5 | 0.8 ± 0.07 | – | – |
| COc1cccc2c(NCc3ccccc3)nc(N3CCNc4ccccc43)nc12 [VII-5] | 3.7 ± 0.2 | 0.9 ± 0.1 | – | – |
| Cc1ccc(-c2nc(NCc3ccccc3)c3ccccc3n2)cc1 [I-10] | 13 ± 2 | 5.7 ± 0.7 | – | – |
| Fc1ccc(Nc2nc(NCc3ccccc3)c3ccccc3n2)cc1 [II-4] | 9.4 ± 1 | 3.8 ± 1.2 | – | – |
| Cc1ccc(Nc2nc(NCc3ccccc3)c3ccccc3n2)cc1F [V-7] | 5.2 ± 1.2 | 0.9 ± 0.2 | – | – |
| Clc1cccc(Nc2nc(NCc3ccccc3Cl)c3ccccc3n2)c1 [III-7] | 18 ± 5 | 4.7 ± 1.4 | – | – |
| c1ccc(CNc2nc(N3CCCCC3)nc3ccccc23)cc1 [XXII] | – | – | 7.3 ± 2 | – |
| Cc1cccc(CNc2nc(NCc3ccccc3)c3ccccc3n2)c1 [IV-11] | 2.5 ± 0.5 | 2.3 ± 0.4 | – | – |
| Fc1ccccc1-c1nc(NCc2ccccc2Cl)c2ccccc2n1 [Cpd I-16] | – | – | 15 ± 3 | 26 ± 12 |

| Structure (SMILES) | IC50 [1, 2] [µM] | IC50 (p97; [3]) [µM] | IC50 [1, 4] [µM] | IC50 (p97; p97 ATPase assay) [µM] |
| --- | --- | --- | --- | --- |
| COc1ccc(CNc2nc(-c3ccc(OC)cc3)nc3ccccc23)cc1 [I-20] | 15 ± 5 | 13 ± 4 | – | – |
| COc1ccc(-c2nc(NCc3ccccc3)c3ccccc3n2)cc1 [I-9] | 15 ± 2 | 1.6 ± 0.3 | – | – |
| COc1cccc2c(NCc3cncs3)nc(N3CCOc4ccccc43)nc12 [XII-1] | – | – | 20 ± 3 | 38 ± 7 |
| FC(F)(F)c1cccc(Nc2nc(NCc3ccccc3)c3ccccc3n2)c1 [II-20] | – | – | 21 ± 1 | 50 ± 16 |
| COc1ccccc1CNc1nc(NCc2ccccc2)c2ccccc2n1 [IV-10] | 1.9 ± 0.2 | 3.6 ± 0.8 | – | – |
| COc1ccccc1Nc1nc(NCc2ccccc2)c2ccccc2n1 [II-11] | 11 ± 3 | 2.2 ± 0.9 | – | – |
| COc1cccc2c(NCC3CCCCC3)nc(N3CCOc4ccccc43)nc12 [XII-6] | 8.2 ± 1 | 7.4 ± 0.9 | – | – |
| c1ccc(CNc2nc(N3CCN(c4ccccc4)CC3)nc3ccccc23)cc1 [XLVII] | – | – | 35 ± 5 | 34 ± 11 |
| COc1cccc2c(NCc3ccccc3)nc(N3CCN(C)CC3)nc12 [XI-4] | – | – | 45 ± 18 | > 30 |
| FC(F)(F)c1ccc2c(NCc3ccccc3)nc(NCc3ccccc3)nc2c1 [VI-7] | 19 ± 1 | 9.1 ± 2 | – | – |
| Clc1ccc(Nc2nc(NCc3ccccc3)c3ccccc3n2)cc1Cl [II-17] | 12 ± 2 | 8.1 ± 2.6 | – | – |
| COc1cccc2c(NCc3ccccc3)nc(-n3cnc4ccccc43)nc12 [XI-1] | 78 ± 45 | 3.3 ± 1.1 | – | – |
| Clc1ccccc1-c1nc(N2CCCc3ccccc32)c2ccccc2n1 [XXIV] | – | – | 11 ± 0.8 | > 30 |
| COc1ccc(F)cc1Nc1nc(NCc2ccccc2)c2ccccc2n1 [V-11] | 9.3 ± 1 | 6.7 ± 3 | – | – |
| COc1ccc(Nc2nc(NCc3ccccc3)c3ccccc3n2)cc1F [V-8] | 4.7 ± 0.8 | 0.9 ± 0.1 | – | – |
| CC(Nc1nc(-c2ccccc2F)nc2ccccc12)c1ccccc1 (stereo not drawn) [Cpd I-31] | – | – | 15 ± 4 | > 30 |
| Fc1ccc(CNc2nc(-c3ccccc3)nc3ccccc23)cc1 [I-13] | 19 ± 3 | 11 ± 3 | – | – |
| CN1CCN(c2nc(NCc3ccccc3)c3ccccc3n2)CC1 [XLV] | – | – | 31 ± 6 | 53 ± 18 |
| COc1cccc2c(NCc3ccccc3)nc(-n3c(N)nc4cc(C)c(C)cc43)nc12 [XXI-1] | – | – | 89 ± 39 | 2 ± 0.4 |
| Cc1ccc(-c2nc(NCc3ccccc3)c3ccc(Cl)cc3n2)cc1 [I-33] | – | – | 24 ± 5 | – |
| FC(F)(F)c1ccc(CNc2nc(NCc3ccccc3)c3ccccc3n2)cc1 [IV-16] | 2.3 ± 0.3 | – | – | – |
| Nc1nc(Nc2cccc(Cl)c2)nc(C(Cl)Cl)n1 [XXVII] | – | – | 13 ± 3 | – |
| Clc1ccc2c(NCc3ccccc3)nc(-c3ccccc3)nc2c1 [Cpd I-32] | – | – | 12 ± 4 | – |
| Cc1cc(C)cc(OCC(=O)OCC(=O)C(C#N)=C2Nc3ccccc3N2)c1 [XXXVII] | – | – | 13 ± 1.4 | – |

| Structure (SMILES) | IC50 [1, 2] [µM] | IC50 (p97; [3]) [µM] | IC50 [1, 4] [µM] | IC50 (p97; p97 ATPase assay) [µM] |
| --- | --- | --- | --- | --- |
| N#CC(C(=O)COC(=O)COc1cccc(Br)c1)=C1Nc2ccccc2N1 [XXXIV] | – | – | 5.9 ± 0.8 | – |
| COc1cccc2c(NCc3ccccc3)nc(Nc3cccc(F)c3)nc12 [XI-17] | 4.8 ± 0.7 | – | – | – |
| Nc1nc(CCl)nc(N2CCc3ccccc32)n1 [XXVI] | – | – | 10.4 ± 1.5 | – |
| CN(Cc1ccccc1)c1nc(-c2ccccc2)nc2ccccc12 [Cpd I-25] | – | – | 17 ± 5 | – |
| Cc1cccc(C)c1OCC(=O)OCC(=O)C(C#N)=C1Nc2ccccc2N1 [XXXVI] | – | – | 15 ± 2 | – |
| Clc1cccc(Nc2nc(NCc3ccccc3)c3ccccc3n2)c1 [II-13] | 7.8 ± 1.3 | – | – | – |
| N#CC(C(=O)COC(=O)c1ccccc1Cc1ccccc1)=C1Nc2ccccc2N1 [XXXIII] | – | – | 3.4 ± 0.6 | – |
| N#CC(C(=O)COC(=O)CNc1ccc(C(F)(F)F)cc1[N+](=O)[O-])=C1Nc2ccccc2N1 [XLI] | – | – | 6.5 ± 0.8 | – |
| Fc1cccc(Nc2nc(NCc3ccccc3)c3ccccc3n2)c1 [II-14] | 2.7 ± 0.4 | – | – | – |
| Cc1cc(OCC(=O)OCC(=O)C(C#N)=C2Nc3ccccc3N2)ccc1Cl [XXXVIII] | – | – | 16 ± 1.4 | – |
| Fc1cccc(CNc2nc(NCc3ccccc3)c3ccccc3n2)c1 [IV-13] | 2.8 ± 0.4 | – | – | – |
| N#CC(C(=O)COC(=O)COc1ccc(Cl)cc1)=C1Nc2ccccc2N1 [XXXII] | – | – | 2.6 ± 0.2 | – |
| CCc1ccc(Nc2nc(N)nc(CCl)n2)cc1 [XXIX] | – | – | 18 ± 3 | – |
| Nc1nc(CCl)nc(N2CCCc3ccccc32)n1 [XXVIII] | – | – | 17 ± 3 | – |
| Clc1ccccc1CNc1nc(-c2ccccc2)nc2ccccc12 [Cpd I-14] | – | – | 11 ± 3 | – |
| COc1cccc2c(NCc3ccccn3)nc(N3CCNc4ccccc43)nc12 [XLIII] | – | – | 16 ± 2 | – |
| Clc1ccccc1-c1nc(NCc2ccccc2)c2ccccc2n1 [I-3] | 8 ± 3 | – | – | – |
| COc1cccc2c(NCc3ccccc3)nc(NCc3cccs3)nc12 [XI-14] | 1.8 ± 0.3 | – | – | – |
| Nc1nc(CCl)nc(Nc2cccc3ccccc23)n1 [XXX] | – | – | 14 ± 3 | – |
| c1ccc(CNc2nc(Nc3ccccc3)nc3ccccc23)cc1 [II-1] | 3.1 ± 0.4 | – | – | – |
| COc1cccc2c(NCc3ccccc3)nc(Nc3cccc(Cl)c3)nc12 [XI-16] | 5.4 ± 1 | – | – | – |
| COc1cccc(CNc2nc(NCc3ccccc3)c3ccccc3n2)c1 [IV-15] | 2.5 ± 0.8 | – | – | – |
| CCCOc1ccc(C(=O)CCC(=O)OCC(=O)C(C#N)=C2Nc3ccccc3N2)cc1 [XXXV] | – | – | 6.1 ± 0.6 | – |
| Cc1ccc(CNc2nc(NCc3ccccc3)c3ccccc3n2)cc1 [IV-1] | 1.5 ± 0.4 | – | – | – |
